Experimental data from patent publication US7390870B2, “Immune-enhancing peptides” (Posco, priority 2001, dated 2008).
No end group written: not given here.

How the values were obtained:
Format in all cases: cell-based
[1] = system: human monocytes; experiment: Superoxide generation in human monocytes (cytochrome c reduction assay); set-up: activity in terms of superoxide generation among the identified peptides: dose or concentration left out as unconfirmed
Protocol: For initial screening of the PS-SPCLs, the superoxide anion generation of each peptide pool was evaluated by measuring reduction of cytochrome c using a microtiter 96 well plate ELISA reader (Bio-Tekinstruments, EL312e, Winooski, Vt.) as described (20). The cytochrome c was purchased from Sigma (St. Louis, Mo.). The human monocytes (9×10^5 cells/100 □ of RPMI 1640 medium per well of a 96-well plate) were preincubated with 50 μM cytochrome c at 37° C. for 1 minute and then incubated with the indicated concentrations of peptide pools (final 0.5 nM per peptide sequence for the initial screening). The superoxide generation was measured as change in light absorption at 550 nm over 5 minutes at 1 minute intervals. From at least four independent experiments, peptides with active amino acids at each position were chosen. Superoxide generation by the identified peptides was measured by the same method. Spurious reduction of cytochrome c was ruled out by checking that the peptides-induced ones were superoxide dismutase-inhibitable in all experiments.
Based on the results of the initial screening of the peptide libraries of Example 4, a peptide pool containing twelve (2×1×1×1×2×3=12) individual hexapeptides were generated by reiterative synthesis. […]
The superoxide generated was measured using a cytochrome c reduction assay as described above. […]

[2] = system: human neutrophils; experiment: [Ca2+]i increase in human neutrophils (fura-2); details: FIG. 4A; 1 μM peptide
Protocol: (§1) The level of [Ca^2+]i was determined by Grynkiewicz's method using fura-2/AM (21). Briefly, prepared cells were incubated with 3 μM fura-2/AM at 37° C. for 50 minutes in a fresh serum-free RPMI 1640 medium under continuous stirring. 2×10^6 cells were aliquoted for each assay in Ca^2+-free Locke's solution (154 mM NaCl, 5.6 mM KCl1.2 mM MgCl2, 5 mM HEPES, pH 7.3, 10 mM glucose, and 0.2 mM EGTA). The fluorescence changes at the dual excitation wavelengths of 340 nm and 380 nm and the emission wavelength of 500 nm were measured, and the calibrated fluorescence ratio was translated into [Ca^2+]i.
(§2) From the fact that HFYLPM, MFYLPM, and HFYLPm stimulate human monocytes, effects of the peptides on other leukocytes such as neutrophils were evaluated. Prepared human primary monocytes, neutrophils, cultured HL60, Jurkat, U937, NIH3T3, 3Y1, 3T3L1, and PC12 cells were loaded with fura-2 and stimulated with effective concentrations of the three peptides (1 μM for monocyte and neutrophil; 10 μM for HL60 and Jurkat; 20 μM for U937, NIH3T3, 3Y1, 3T3L1, and PC12). The peak level of the [Ca^2+]i increase was recorded and superoxide generation was measured using cytochrome c reduction assay. The results are shown FIG. 4. The data of FIG. 4 are presented as means ±S.E. from at least three independent experiments.

[3] = system: Jurkat human T cell leukemia cells; experiment: [Ca2+]i increase in Jurkat cells (fura-2); details: FIG. 4A; MFYLPM up to 30 μM
Protocol: as §1, §2

[4] = system: NIH3T3 (NIH Swiss mouse embryo fibroblast); experiment: [Ca2+]i rise in NIH3T3 cells (fura-2); details: FIG. 4A; 20 μM peptide
Protocol: as §1, §2

[5] = system: 3Y1 (Rat embryonic fibroblast); experiment: [Ca2+]i rise in 3Y1 cells (fura-2); details: FIG. 4A; 20 μM peptide
Protocol: as §1, §2

[6] = system: 3T3L1 (preadipocyte); experiment: [Ca2+]i rise in 3T3L1 cells (fura-2); details: FIG. 4A; 20 μM peptide
Protocol: as §1, §2

[7] = system: human neutrophil; experiment: Chemotaxis assay, human neutrophils (multiwell chamber); details: similar concentrations as for monocyte migration
Protocol: Chemotaxis assays of the peptide were performed using multiwell chambers (Neuroprobe Inc., Gaithersburg, Md.) (20). Briefly, the prepared isolated human monocytes were suspended in RPMI at a concentration of 1×10^6 cells/ml of serum-free RPMI, and 25 □ of the suspension were placed onto the upper well of a 96-well chemotaxis chamber that was separated by a […] filter with a 5 □ pore size (3 □ diameter pores not coated with polyvinylpyrrolidone for neutrophils) from peptides or an fMLF-containing lower well. After incubation for 2 hours (90 minutes for neutrophils) at 37° C., non-migrated cells were removed by scraping them out, and cells that migrated across the filter were dehydrated, fixed, and stained with hematoxylin (Sigma, St. Louis, Mo.). The stained cells in five randomly chosen high power fields (HPF) (400×) in that well were then counted (21). The numbers of migrated cells were determined by counting them in a high power field (400×). For a checkboard analysis, cells were re-suspended in RPMI containing various concentrations of the peptide just before transferring them to the upper wells as described before (22).

Question: How did the “activity in terms of superoxide generation among the identified peptides” value ([1]; FIG. 2A, monocytes stimulated) turn out when “Met-Phe-Tyr-Leu-Pro-Met-CONH2 (MFYLPM-NH2)” was run?
Answer: most active

Question: What about the “concentration of maximal activity, superoxide generation” value ([1]; FIG. 2B, concentration dependency) of the same substance?
Answer: 3.3 µM

Question: And the “[Ca2+]i increase in neutrophils” value [2]?
Answer: increase their [Ca^2+]i

Question: What about the “intracellular calcium mobilization in Jurkat cells” value [3] of the same substance?
Answer: did not cause a similar intracellular calcium mobilization

Question: What about the “[Ca2+]i rise in NIH3T3 cells” value [4] of the same substance?
Answer: no response

Question: And the “[Ca2+]i rise in 3Y1 cells” value [5]?
Answer: no response

Question: And the “[Ca2+]i rise in 3T3L1 cells” value [6]?
Answer: no response

Question: And the “cellular migration in human neutrophil” value [7]?
Answer: induced cellular migration
